Results taken from patent publication US20220295713A1, “PLANT ACTIVATOR AND A METHOD OF MANUFACTURING THE SAME” (IBIDEN CO., LTD., priority 2016, published 2022).

Legend:
[1] = tested on: bacterial soft rot causing bacteria (Erwinia carotovora subsp. Carotovora); test: Bacterial soft rot in Arabidopsis thaliana after root treatment by watering; format: in vivo; conditions: comparative agents used instead of the plant activator, roots treated by watering, inoculated 24 hours after treatment
Procedure: The roots of Arabidopsis thaliana grown in the soil were treated by applying the 10 times, 100 times or 500 times diluted solution of the plant activator for test using the watering. 24 hours after the treatment, bacterial soft rot causing bacteria (Erwinia carotovora subsp. Carotovora) was inoculated on the leaves and stems above the ground. The plants were then grown at 23±2° C. in a high humidity environment for 3 days, and the disease symptoms at the pathogenic bacteria inoculated part had been evaluated up to one week after. The disease prevention effect was determined according to the following criteria.
⊚: the ratio of the area of leaves with no disease symptoms out of total area is 1.60 times or greater than the ratio observed in untreated leaves. ∘: the ratio of the area of leaves with no disease symptoms out of total area is 1.40 to 1.59 times than the ratio observed in untreated leaves. Δ: the ratio of the area of leaves with no disease symptoms out of total area is 1.20 to 1.39 times than the ratio observed in untreated leaves. X: the ratio of the area of leaves with no disease symptoms out of total area is 1.20 times less than the ratio observed in untreated leaves.
The roots of Arabidopsis thaliana were treated similar to Example 2 except that the water, peroxylipid, probenazole, isotianil, acibenzolar-S-methyl (ASM), 3′-chloro-4,4′-dimethyl-1,2,3-thiadiazole-5-carboxianilide (tiadinil), ketol fatty acid solution 1, or ketol fatty acid solution 2 was used instead of the plant activator for test.

bacterial wilt disease = test: Bacterial wilt disease in tomatoes growing in farm field; format: in vivo, Tomato (cultivar "Reika"); conditions: plant activator 50 times diluted, applied once every week
Procedure: (§1) Tomato (cultivar “Reika”) seedlings were planted with space of 60 cm between plants in the farm field where an outburst of bacterial wilt disease was observed, and the solution of the plant activator for test, which was 50 times diluted with water, was applied either by spraying (20 mL/plant) or watering it to soil (200 mL plant) once every week. The incidences of the bacterial wilt disease and phytotoxic damage were evaluated once every week for 4 weeks.
(§2) The leaves and stems of tomatoes were treated similar to Example 6 except that the Validamycin or no agent was used instead of the plant activator for test.

[2] = tested on: Tomato (cultivar "Reika"); format: in vivo; conditions: farm field, plant activator 50 times diluted, applied once every week
Procedure: as §1, §2

[3] = tested on: tomatoes (cultivar "Momotaro"); test: Phytotoxic damage in tomatoes grown in pot; format: in vivo; conditions: 10 mL undiluted solution by watering, 7 days
Procedure: (§3) The leaves and stems of tomatoes (cultivar “Momotaro”) grown in the pot for 3 weeks were treated by applying 10 mL of undiluted solution of the plant activator for test using the watering. The soil (about 100 g) in the pot was moistened thoroughly before the watering. The bacterial wilt disease bacteria were inoculated on the leaves and roots of tomatoes 1 hour and 24 hours after the watering. The plants were then grown at 30° C. in a high humidity environment for 7 days, and the incidences of the bacterial wilt disease and phytotoxic damage were evaluated.
(§4) The leaves and stems of tomatoes were treated similar to Example 5 except that the water and the fatty acid (linoleic acid) were used instead of the plant activator for test.

[4] = tested on: jasmonate mediated signaling pathway; test: Real-time PCR gene expression in tomatoes, jasmonate mediated signaling pathway; format: in vivo, tomatoes (cultivar "Momotaro"); conditions: index, untreated tomatoes = 1
Procedure: (§5) Further, the cDNA was synthesized from total RNA isolated from each tomato 24 hours and 72 hours after the inoculation, and the expression level of individual genes specific to the salicylic acid mediated signaling pathway and the jasmonate mediated signaling pathway was analyzed by real-time PCR. In this example, the amount of the gene expression is represented by an index, which is a calculated ratio given that the amount of gene expression in untreated tomatoes is 1.

[5] = tested on: salicylic acid mediated signaling pathway; test: Real-time PCR gene expression in tomatoes, salicylic acid mediated signaling pathway; format: in vivo, tomatoes (cultivar "Momotaro"); conditions: index, untreated tomatoes = 1
Procedure: as §5

[6] = tested on: bacterial wilt disease bacteria; test: Bacterial wilt disease in tomatoes grown in pot; format: in vivo, tomatoes (cultivar "Momotaro"); conditions: 10 mL undiluted solution by watering, grown 7 days at 30° C. after inoculation
Procedure: as §3, §4

powdery mildew = test: Naturally occurring powdery mildew in miniature roses in a planter; format: in vivo, miniature roses (cultivar Rouge); conditions: plant activator 100 times diluted or 0.02% mepanipyrim, sprayed once every week
Procedure: (§6) The solution of the plant activator for test, which was 100 times diluted with water, was applied to the leaves and stems of miniature roses (cultivar Rouge) planted in an outdoor planter right after the planting and once every week by spraying (about 50 mL/plant), and the naturally occurring damages due to disease (powdery mildew and black point disease) were evaluated on first week and fourth week.
(§7) The leaves and stems of miniature roses were treated similar to Example 7 except that 0.02% mepanipyrim or no agent was used instead of the plant activator for test.

black point disease = test: Naturally occurring black point disease in miniature roses in a planter; format: in vivo, miniature roses (cultivar Rouge); conditions: plant activator 100 times diluted or 0.02% mepanipyrim, sprayed once every week
Procedure: as §6, §7

CSC(=O)c1cccc2nnsc12 [ASM, acibenzolar-S-methyl]
disease prevention [1]: ⊚ (the ratio of the area of leaves with no disease symptoms out of total area is 1.60 times or greater than the ratio observed in untreated leaves.)

OCC1=C[C@H](N[C@H]2C[C@H](CO)[C@@H](O[C@@H]3O[C@H](CO)[C@@H](O)[C@H](O)[C@H]3O)[C@H](O)[C@H]2O)[C@H](O)[C@@H](O)[C@@H]1O [Validamycin]
incidences of disease Week 1 (bacterial wilt disease; Week 1): 0% | incidences of disease Week 2 (bacterial wilt disease; Week 2): 0% | incidences of disease Week 3 (bacterial wilt disease; Week 3): 0% | incidences of disease Week 4 (bacterial wilt disease; Week 4): 67% | incidences of phytotoxic damage Week 1 ([2]; Week 1): 100% | incidences of phytotoxic damage Week 2 ([2]; Week 2): 100% | incidences of phytotoxic damage Week 3 ([2]; Week 3): 100% | incidences of phytotoxic damage Week 4 ([2]; Week 4): 100%

CCCCC/C=C\C/C=C\CCCCCCCC(=O)O [fatty acid, linoleic acid]
incidences of phytotoxic damage [3]: 0% | amount of gene expression jasmonate mediated signaling pathway 24 hours ([4]; 24 hours after inoculation): 0.5 | amount of gene expression jasmonate mediated signaling pathway 72 hours ([4]; 72 hours after inoculation): 1 | amount of gene expression salicylic acid mediated signaling pathway 24 hours ([5]; 24 hours after inoculation): 0 | amount of gene expression salicylic acid mediated signaling pathway 72 hours ([5]; 72 hours after inoculation): 0 | incidences of disease [6]: 100%

N#Cc1ccccc1NC(=O)c1snc(Cl)c1Cl [isotianil]
disease prevention [1]: Δ (the ratio of the area of leaves with no disease symptoms out of total area is 1.20 to 1.39 times than the ratio observed in untreated leaves.)

CC#Cc1cc(C)nc(Nc2ccccc2)n1 [mepanipyrim]
incidences of disease powdery mildew Week 1 (powdery mildew; Week 1): 20.0% | incidences of disease powdery mildew Week 4 (powdery mildew; Week 4): 30.0% | incidences of disease black point disease Week 1 (black point disease; Week 1): 0% | incidences of disease black point disease Week 4 (black point disease; Week 4): 15%

C=CCOC1=NS(=O)(=O)c2ccccc21 [probenazole]
disease prevention [1]: Δ (the ratio of the area of leaves with no disease symptoms out of total area is 1.20 to 1.39 times than the ratio observed in untreated leaves.)

Cc1ccc(NC(=O)c2snnc2C)cc1Cl [tiadinil, 3′-chloro-4,4′-dimethyl-1,2,3-thiadiazole-5-carboxianilide]
disease prevention [1]: X (the ratio of the area of leaves with no disease symptoms out of total area is 1.20 times less than the ratio observed in untreated leaves.)
